Results as given in patent publication US20260285857A1, “BICYCLIC AND HETEROCYCLIC AMIDE COMPOUNDS” (priority 2024, published 2026).

These compounds were tested on immunoglobulin light chain protein WIL-FL T46L (assay: Differential scanning fluorimetry (thermal shift) assay). Conditions: Table B; temperature shift [Tm]compound-[Tm]vehicle; recombinant WIL-FL T46L.
Type: binding

Row | Compound | DSF
1 | CNC(=O)C12CC(NC(=O)c3nc4c(C)cc(N5CC[C@](C)(c6ccccc6)C5)cn4n3)(CO1)C2 [Compound 597] | ***** (>2.5° C.=*****)
2 | Cc1cc(N2CC[C@](C)(c3ccccc3)C2)cn2nc(C(=O)N3CCC4(COCC(C(=O)O)O4)C3)nc12 (stereo partly drawn) [Compound 598] | ***** (>2.5° C.=*****)
3 | Cc1cc(N2CC[C@](C)(c3ccccc3)C2)cn2nc(C(=O)NC3CC4(C3)CC(N3CCC(C(=O)O)CC3)C4)nc12 (stereo partly drawn) [Compound 599] | ***** (>2.5° C.=*****)
4 | Cc1cc(N2CC[C@](C)(c3ccccc3)C2)cn2nc(C(=O)NC3CC4(C3)CC(N3CC(C(=O)O)C3)C4)nc12 (stereo partly drawn) [Compound 600] | ***** (>2.5° C.=*****)
5 | Cc1cc(N2CC[C@](C)(c3ccccc3)C2)cn2nc(C(=O)NC3CC4(C3)CN(C(=O)CC(C)(C)C(=O)O)C4)nc12 [Compound 601] | ***** (>2.5° C.=*****)
6 | Cc1cc(N2CC[C@](C)(c3ccccc3)C2)cn2nc(C(=O)NC34CCC(CO)(CC3)OC4)nc12 [Compound 602] | ***** (>2.5° C.=*****)
7 | Cc1cc(N2CC[C@](C)(c3ccccc3)C2)cn2nc(C(=O)N3CC(C(=O)O)C4(COC4)C3)nc12 (stereo partly drawn) [Compound 603] | ***** (>2.5° C.=*****)
8 | Cc1cc(N2CC[C@](C)(c3ccccc3)C2)cn2nc(C(=O)N3CC4COCC4(C(=O)O)C3)nc12 (stereo partly drawn) [Compound 604] | ***** (>2.5° C.=*****)
9 | Cc1cc(N2CC[C@](C)(c3ccccc3)C2)cn2nc(C(=O)N3CCC4(CCCC(C(=O)O)C4)C3)nc12 (stereo partly drawn) [Compound 606] | ***** (>2.5° C.=*****)
10 | Cc1cc(N2CC[C@](C)(c3ccccc3)C2)cn2nc(C(=O)NC3CCN(c4cccc(S(C)(=N)=O)n4)CC3)nc12 (stereo partly drawn) [Compound 608, 8-methyl-6-[(3R)-3-methyl-3-phenyl-pyrrolidin-1-yl]-N-[1-[6-(methylsulfonimidoyl)-2-pyridyl]-4-piperidyl]-[1,2,4]triazolo[1,5-a]pyridine-2-carboxamide] | ***** (>2.5° C.=*****)
11 | Cc1cc(N2CC[C@](C)(c3ccccc3)C2)cn2nc(C(=O)N3CCC4(CCN(c5ccc(C(N)=O)c(C(=O)O)n5)C4)C3)nc12 (stereo partly drawn) [Compound 610] | ***** (>2.5° C.=*****)
12 | Cc1cc(N2CC[C@](C)(c3ccccc3)C2)cn2nc(C(=O)N3CCC4C3CCN4c3cccc(C(=O)O)n3)nc12 (stereo partly drawn) [Compound 611] | ***** (>2.5° C.=*****)
13 | COC1(CNC(=O)c2nc3c(C)cc(N4CC[C@](C)(c5ccccc5)C4)cn3n2)CN(c2cccc(C(=O)O)n2)C1 [Compound 612] | ***** (>2.5° C.=*****)
14 | Cc1cc(N2CC[C@](C)(c3ccccc3)C2)cn2nc(C(=O)NCC3(O)CN(c4cccc(C(=O)O)n4)C3)nc12 [Compound 613] | ***** (>2.5° C.=*****)
15 | Cc1cc(N2CC[C@](C)(c3ccccc3)C2)cn2nc(C(=O)N3CCC34CN(c3cccc(C(=O)O)n3)C4)nc12 [Compound 615] | **** (>1.5-2.5° C.=****)
16 | Cc1cc(N2CC[C@](C)(c3ccccc3)C2)cn2nc(C(=O)N3CCC(Nc4cccc(C(=O)O)n4)C3)nc12 (stereo partly drawn) [Compound 616] | ***** (>2.5° C.=*****)
17 | Cc1cc(N2CC[C@](C)(c3ccccc3)C2)cn2nc(C(=O)NC3(C)CCCN(c4cccc(C(=O)O)n4)C3)nc12 (stereo partly drawn) [Compound 617] | ***** (>2.5° C.=*****)
18 | C[C@]1(c2ccccc2)CCN(c2cc(CO)c3nc(C(=O)N4CCC5(C4)CN(c4cccc(C(=O)O)n4)C5)nn3c2)C1 [Compound 618] | ***** (>2.5° C.=*****)
19 | COc1cc(N2CCC3(CCN(C(=O)c4nc5c(C)cc(N6CC[C@](C)(c7ccccc7)C6)cn5n4)C3)C2)cc(C(=O)O)n1 (stereo partly drawn) [Compound 619] | ***** (>2.5° C.=*****)
20 | Cc1cc(N2CC[C@](C)(c3ccccc3)C2)cn2nc(C(=O)NC3CCC4CCC3N4c3cccc(C(=O)O)n3)nc12 (stereo partly drawn) [Compound 620] | ***** (>2.5° C.=*****)
21 | Cc1cc(N2CC[C@](C)(c3ccccc3)C2)cn2nc(C(=O)N3CCC4(CCN4c4ccnc(C(=O)O)c4)C3)nc12 (stereo partly drawn) [Compound 621] | ***** (>2.5° C.=*****)
22 | Cc1cc(N2CC[C@](C)(c3ccccc3)C2)cn2nc(C(=O)N3CC4C(C3)C4Nc3cccc(C(=O)O)n3)nc12 (stereo partly drawn) [Compound 622] | ***** (>2.5° C.=*****)
23 | Cc1cc(N2CC[C@](C)(c3ccccc3)C2)cn2nc(C(=O)N[C@H]3C[C@]4(CCN(c5cccc(C(=O)O)n5)C4)C3)nc12 [Compound 623] | ***** (>2.5° C.=*****)
24 | Cc1cc(N2CC[C@](C)(c3ccccc3)C2)cn2nc(C(=O)N[C@H]3C[C@@]4(CCN(c5cccc(C(=O)O)n5)C4)C3)nc12 [Compound 624] | ***** (>2.5° C.=*****)

Row | Compound | DSF
25 | COc1ccc(N2CCC3(CCN(C(=O)c4nc5c(C)cc(N6CC[C@](C)(c7ccccc7)C6)cn5n4)C3)C2)nc1C(=O)O (stereo partly drawn) [Compound 625] | ***** (>2.5° C.=*****)
26 | Cc1cc(N2CC[C@](C)(c3ccccc3)C2)cn2nc(C(=O)N3CCC4(CCN(c5cc(C(=O)O)cnn5)C4)C3)nc12 (stereo partly drawn) [Compound 626] | ***** (>2.5° C.=*****)
27 | Cc1ccc(N2CCC3(CCN(C(=O)c4nc5c(C)cc(N6CC[C@](C)(c7ccccc7)C6)cn5n4)C3)C2)nc1C(=O)O (stereo partly drawn) [Compound 627] | ***** (>2.5° C.=*****)
28 | Cc1cc(N2CC[C@](C)(c3ccccc3)C2)cn2nc(C(=O)N[C@H]3[C@@H]4CN(c5cccc(C(=O)O)n5)C[C@@H]43)nc12 [Compound 628] | ***** (>2.5° C.=*****)
29 | Cc1cc(N2CC[C@](C)(c3ccccc3)C2)cn2nc(C(=O)N3CC4CCN(c5cccc(C(=O)O)n5)CC43)nc12 (stereo partly drawn) [Compound 629] | ***** (>2.5° C.=*****)
30 | COc1cc(N2C[C@H]3CN(C(=O)c4nc5c(C)cc(N6CC[C@](C)(c7ccccc7)C6)cn5n4)C[C@H]3C2)cc(C(=O)O)n1 [Compound 630] | ***** (>2.5° C.=*****)
31 | CCC1(c2ccccc2)CN(c2cc(C)c3nc(C(=O)N4C[C@@H]5CN(c6cccc(C(=O)O)n6)C[C@@H]5C4)nn3c2)C1 [Compound 631] | ***** (>2.5° C.=*****)
32 | Cc1cc(N2CC[C@](C)(c3ccccc3)C2)cn2nc(C(=O)NC3CC[C@@H]3Nc3cccc(C(=O)O)n3)nc12 (stereo partly drawn) [Compound 635] | ***** (>2.5° C.=*****)
33 | Cc1cc(N2CC[C@](C)(c3ccccc3)C2)cn2nc(C(=O)N3CC4CN(c5cccc(C(=O)O)n5)CC4(C#N)C3)nc12 (stereo partly drawn) [Compound 636, 6-[3a-cyano-5-[8-methyl-6-[(3R)-3-methyl-3-phenyl-pyrrolidin-1-yl]-[1,2,4]triazolo[1,5-a]pyridine-2-carbonyl]-3,4,6,6a-tetrahydro-1H-pyrrolo[3,4-c]pyrrol-2-yl]pyridine-2-carboxylic acid] | ***** (>2.5° C.=*****)
34 | Cc1cc(N2CC[C@](C)(c3ccccc3)C2)cn2nc(C(=O)N3CCc4c(nnn4C4CCC(C(=O)O)C4)C3)nc12 (stereo partly drawn) [Compound 638] | ***** (>2.5° C.=*****)
35 | Cc1cc(N2CC[C@](C)(c3ccccc3)C2)cn2nc(C(=O)N3CCc4c(nnn4-c4ccnc(C(=O)O)c4)C3)nc12 [Compound 639] | ***** (>2.5° C.=*****)
36 | Cc1cc(N2CC[C@](C)(c3ccccc3)C2)cn2nc(C(=O)N3CCC4(CCC(c5cccc(C(=O)O)n5)C4)C3)nc12 (stereo partly drawn) [Compound 640, 6-[2-[8-methyl-6-[(3R)-3-methyl-3-phenyl-pyrrolidin-1-yl]-[1,2,4]triazolo[1,5-a]pyridine-2-carbonyl]-2-azaspiro[4.4]nonan-8-yl]pyridine-2-carboxylic acid] | ***** (>2.5° C.=*****)
37 | Cc1cc(N2CC[C@](C)(c3ccccc3)C2)cn2nc(C(=O)NC3CC4(CCN(c5cccc(C(=O)O)n5)CC4)C3)nc12 [Compound 642, 6-[2-[[8-methyl-6-[(3R)-3-methyl-3-phenyl-pyrrolidin-1-yl]-[1,2,4]triazolo[1,5-a]pyridine-2-carbonyl]amino]-7-azaspiro[3.5]nonan-7-yl]pyridine-2-carboxylic acid] | ***** (>2.5° C.=*****)
38 | Cc1cc(N2CC[C@](C)(c3ccccc3)C2)cn2nc(C(=O)N3C[C@@H]4CN(c5cccc(C(=O)O)n5)C[C@]4(C)C3)nc12 [Compound 643] | ***** (>2.5° C.=*****)
39 | Cc1cc(N2CC[C@](C)(c3ccccc3)C2)cn2nc(C(=O)N3C[C@@H]4CN(c5cccc(C(=O)O)n5)C[C@H]4C3)nc12 [Compound 644] | ***** (>2.5° C.=*****)
40 | Cc1cc(N2CC[C@](C)(c3ccccc3)C2)cn2nc(C(=O)N3CC4CCN(c5cccc(C(=O)O)n5)C4C3)nc12 (stereo partly drawn) [Compound 645] | ***** (>2.5° C.=*****)
41 | Cc1cc(N2CC[C@](C)(c3ccccc3)C2)cn2nc(C(=O)NC3CN(c4cccc(C(=O)O)n4)CC34COC4)nc12 (stereo partly drawn) [Compound 646] | ***** (>2.5° C.=*****)
42 | Cc1cc(N2CC[C@](C)(c3ccccc3)C2)cn2nc(C(=O)NCC3CCN(c4cccc(C(=O)O)n4)CC3)nc12 [Compound 647] | ***** (>2.5° C.=*****)
43 | Cc1cc(N2CC[C@](C)(c3ccccc3)C2)cn2nc(C(=O)NC3CC4(CCC4Nc4cccc(C(=O)O)n4)C3)nc12 (stereo partly drawn) [Compound 662, 6-((6-(8-methyl-6-((R)-3-methyl-3-phenylpyrrolidin-1-yl)-[1,2,4]triazolo[1,5-a]pyridine-2-carboxamido)spiro[3.3]heptan-1-yl)amino)picolinic acid] | ***** (>2.5° C.=*****)
44 | Cc1nc(N2CC3(CC(NC(=O)c4nc5c(C)cc(N6CC[C@](C)(c7ccccc7)C6)cn5n4)C3)C2)ccc1C(=O)O [Compound 663] | ***** (>2.5° C.=*****)
45 | Cc1cc(N2CC[C@](C)(c3ccccc3)C2)cn2nc(C(=O)NC3CN(c4cccc(C(=O)O)n4)C4(COC4)C3)nc12 (stereo partly drawn) [Compound 664, 6-[7-[[8-methyl-6-[(3R)-3-methyl-3-phenyl-pyrrolidin-1-yl]-[1,2,4]triazolo[1,5-a]pyridine-2-carbonyl]amino]-2-oxa-5-azaspiro[3.4]octan-5-yl]pyridine-2-carboxylic acid] | ***** (>2.5° C.=*****)
46 | Cc1cc(N2CC[C@](C)(c3ccccc3)C2)cn2nc(C(=O)N3CC4(C3)CN(c3cccc(C(=O)O)n3)CCO4)nc12 [Compound 665] | ***** (>2.5° C.=*****)
47 | CO[C@H]1CN(c2cccc(C(=O)O)n2)CC1NC(=O)c1nc2c(C)cc(N3CC[C@](C)(c4ccccc4)C3)cn2n1 (stereo partly drawn) [Compound 666] | ***** (>2.5° C.=*****)
48 | Cc1cc(N2CC[C@](C)(c3ccccc3)C2)cn2nc(C(=O)NC3CC4(CCN4c4cccc(C(=O)O)n4)C3)nc12 (stereo partly drawn) [Compound 667] | ***** (>2.5° C.=*****)
